The results in this text go back to article PMC3929365, “Benzimidazoisoquinolines: A New Class of Rapidly Metabolized Aryl Hydrocarbon Receptor (AhR) Ligands that Induce AhR-Dependent Tregs and Prevent Murine Graft-Versus-Host Disease” (PLoS ONE, 2014).

A short description of data set [1]: Pharmacokinetics: serum concentration after single i.p. injection. Type of data set: in vivo, C57Bl/6 mice. The settings on record: 10 mg/kg i.p., mouse. The method, then:
C57Bl/6 mice were injected i.p. with 10 mg/kg 10-Cl-BBQ. At defined time points, blood was collected by cardiac puncture. Serum was harvested and protein was precipitated by adding a 4-fold volume of ice-cold acetonitrile. The supernatant was collected and analyzed on a QTRAP 4000 LC/MS/MS instrument using an Agilent C8 UPLC column. The serum concentration of 10-Cl-BBQ was determined using a standard curve prepared using dilutions of 10,000; 5,000; 1,000; 500; 100; 50 and 10 pg/ml of 10-Cl-BBQ. The mean values (n = 2–3 mice per time point) are shown with SEM. Pharmacokinetic parameters were calculated using PKsolver software.
Figure 2 Pharmacokinetics of 10-Cl-BBQ. C57BL/6 mice were given 10 mg/kg 10-Cl-BBQ by i.p. injection. A) Blood was collected at the indicated times by cardiac puncture. The serum was processed to remove protein and the samples were analyzed by QTRAP 4000 LC/MS/MS. The serum concentration of 10-Cl-BBQ was determined from a standard curve based on known concentrations of 10-Cl-BBQ. B) Liver tissue was harvested and processed for mRNA analysis. CYP1A1 gene expression was determined relative to the β-actin gene, and the fold-induction was determined by the ΔΔCt method using the vehicle-treated samples as a control. The mean values are shown with SEM for 2–3 mice per time point.

The subject of a further data set is donor CD4+ T cells. Description: AhR-Treg phenotype of alloactivated donor CD4+ T cells 48 h after initiating the GVH response. The format is in vivo, B6D2F1 host mice. The method, then: Splenocytes and lymphocytes were harvested from C57Bl/6 mice. In some experiments, T cells were purified by negative selection using a Pan-T kit (Miltenyi Biotec) and stained with 2 µM carboxyfluorescein succinimidyl ester (CFSE) (Life Technologies). At least 2×10^7 purified T cells or approximately 1×10^8 pooled splenocytes and lymphocytes were injected i.v. into B6D2F1 host mice to initiate the GVH response. GVHD pathology was assessed on a scale of 0 to 3 (0 = normal, 1 = moderate morbidity, 2 = severe morbidity, 3 = death) according to the following five criteria: weight-loss, posture, activity, fur texture and death and reported as a Clinical GVHD Score.
Host mice were treated daily with vehicle, 10-Cl-BBQ or BBQ analogues by i.p. injection. The vehicle consisted of a mixture of 6.7% anisole and peanut oil. Mice treated with a single i.p. dose of 15 µg TCDD/kg body weight in the same vehicle were used as positive controls.
Antibodies to CTLA-4, Foxp3, ICOS, CD62L, CD25, CD19, CD44) and a fixable viability dye were purchased from eBiosciences. Additional antibody reagents included CD4 and CD8 (Life Technologies); H-2D^d (Biolegend) and CD45RB (PharMingen). After surface staining, the cells were fixed and permeabilized with Cytofix/cytoperm (BD Biosciences) for intracellular CTLA-4 stain. The flow cytometry data were acquired on an FC500 instrument (Beckman Coulter) and the data were analyzed using WinList 7.0 (Verity Software House). Fluorescence minus one (FMO) controls were used for setting histogram gates during the analysis.
Figure 3 10-Cl-BBQ induces an AhR-dependent Treg phenotype 48 h after initiating the GVH response. On day 0, B6D2F1 host mice in groups of 5 were injected with CFSE-labeled C57Bl/6 T cells and given 15 mg/kg 10-Cl-BBQ, 15 µg/kg TCDD or vehicle by i.p. injection. At 24 h, an additional dose of 7 mg/kg 10-Cl-BBQ or vehicle was given. […] Treatment mean ± SEM is shown in the quadrant of interest. […] C) AhR-dependent induction of the donor Treg phenotype by 10-Cl-BBQ. On day 0, B6D2F1 host mice in groups of 5 were injected with donor T cells obtained from AhR^+/+ or AhR^−/− C57Bl/6 mice. Host mice were treated with 2 mg/kg10-Cl-BBQ or vehicle immediately following donor cell transfer and again at 24 hr. […] D) Dose-dependent induction of Treg phenotype by 10-Cl-BBQ. On day 0, B6D2F1 host mice in groups of 3–5 were injected with C57Bl/6 T cells. Mice were immediately treated with 0, 0.4, 2 or 10 mg/kg 10-Cl-BBQ and again on day 1. On day 2, expression of markers associated with the AhR-Treg phenotype increased as the dose of 10-Cl-BBQ increased. E) In the same mice as in D, lymph nodes were harvested and analyzed for expression of genes that were previously shown to increase under the same GVH conditions with TCDD treatment (13). […] Changes in gene expression were calculated relative to the β-actin gene, and the fold-induction was calculated by the ΔΔCt method using the vehicle-treated samples as a control. * = p<0.05 relative to vehicle treatment. […]

In a further data set the test system is AhR target genes. In words: Expression of known AhR target genes in Hepa1 cells (RT-qPCR). Type of data set: cell-based, mouse. The settings on record: 10 nM, eight hours. The method, then:
Supplementary file pone.0088726.s001.tif: Figure S1 10-Cl-BBQ induces the expression of known AhR target genes. Hepa1 cells were treated with 10-Cl-BBQ (10 nM), TCDD (10 nM), or vehicle (DMSO) for eight hours. RNA was extracted and RT-qPCR was performed for a select set of known AhR target genes. AHRR: aryl hydrocarbon receptor repressor, ALDH3A1: aldehyde dehydrogenase family 3; subfamily A1, CYP1b1: cytochrome P450 1b1; Gstm3: glutathione S-transferase, mu 3; GST-Ya: glutathione S transferase, alpha 1; NQO1: NAD(P)H dehydrogenase quinone 1; UGT2b34: UDP glucuronosyltransferase 2 family, polypeptide B34. (TIF) Click here for additional data file.
Background: Quantitative PCR measures a nucleic acid by following its amplification.

What is called half-life is the time in which the quantity being followed falls by half. A lower half-life goes with fast loss. Regarding `O=c1c2cccc3cccc(c32)c2nc3ccc(Cl)cc3n12` [10-Cl-BBQ, 10-chloro-7H-benzimidazo[2,1-a]benzo[de]isoquinolin-7-one], in data set [1], the “absorption rate constant (ka)” value came out at 1.2 h⁻¹, the “time required to reach Cmax (Tmax)” value amounted to 1.64 h and the “total clearance/bioavailability (CL/F)” value is recorded as 32.5 mL/min. In data set [1] (C57Bl/6, serum, ip, one compartment model), this compound gave a half-life of around 2 h. Besides, in data set [1] (C57Bl/6, serum, ip, read-out: area under the concentration-time curve (AUC0-∞)), the AUC(0-inf) was 102 ng·h/mL. Also, the Cmax in data set [1] (C57Bl/6, serum, ip, read-out: maximum concentration reached in serum (Cmax)) is 21.5 ng/mL. Further, the Vd/F in data set [1] (C57Bl/6, serum, ip, read-out: volume of distribution/bioavailability (V/F)) came to 5.66 L. Further, the “changes in parameters associated with AhR-Tregs” value in the data set on donor CD4+ T cells (0.4 mg/kg/day for two days) is “failed to induce significant changes”. Moreover, the “induction of the Treg phenotype with AhR-deficient donor T cells” value in the data set with donor CD4+ T cells (AhR−/− donor T cells, 2 mg/kg at 0 and 24 hr, day 2) was “failed to induce the Treg phenotype”. Besides, the “minimum effective dose to induce Tregs” value in the data set on donor CD4+ T cells (i.p. for two days after initiation of the GVH response) is on record as 2.0 mg/kg/day. Moreover, the “induction of genes associated with AhR activation in hepatocytes” value in the data set on AhR target genes is recorded as “induced a battery of genes”.
